Source: patent US20110212116A1, “IMMUNOGENIC PEPTIDES AND USES THEREOF” (Cancer Research Technology Limited, priority 2008, published 2011)
Entries after “also recorded” stand apart in the source; their conditions may differ.

Experiments:
[1] = tested on: healthy donor T cells; assay: IFNγ ELISA of healthy donor T cells stimulated with peptide loaded autologous DCs; assay type: cell-based, human; settings: for IFNγ responses following stimulation with autologous DCs loaded with wild type peptide: in one of three normal donors tested; for IFNγ production from normal donor T cells: modified peptides P11-P16, six normal donors
Procedure: PBMCs were prepared from healthy donor buffy coats as described above. Monocytes were obtained from newly sourced buffy coats, or cells thawed at 10^6/ml in warm X-VIVO medium, 1% human AB serum and plated in 90 mm TC dishes. Plates were incubated at 37° C. for at least 4 hours and non adherent cells removed by gently washing with media or HBSS or CD14^+ cells were positively selected as described. The remaining T cell enriched cells were cryopreserved for use as effectors in later assays. The CD14^+ fraction/adherent cells were cultured in IL-4 (1000 IU/ml) and GM-CSF (800 U/ml) for 5 days to induce differentiation to a dendritic cell (DC) phenotype. On day 3 fresh IL-4 and GM-CSF were added. On day 5 TNFα (10 ng/ml), IL-6 (1000 U/ml) and IL-1β (10 ng/ml) all from R&D systems UK and PGE2 (1 μg/ml) (from Sigma, UK) were added to plates. On day 6 DCs were harvested from plates and washed with HBSS to remove residual cytokines before use in immunological experiments. Analysis of DC phenotype was carried out by flow cytometry.
IL-2 and IFNγ levels were determined with Duo set ELISA Development System (R&D Systems), according to the manufacturer's instructions. Supernatants were collected at various time points (days 3, 7, 10 and 14) in order to detect peak cytokine levels.
(§1) After 24 hours in maturation cytokines, DCs were incubated with peptide (50 μg/ml) for 4 hours. PBMCs or CD3^+ cells from healthy donors or patients with solid tumours were seeded into a 12-well plate, in X-VIVO 15 at a density of 2×10^6/ml. Peptide pulsed, monocyte derived DCs were washed and prepared at 2×10^5/ml. PBMC cultures received peptide pulsed DCs at a stimulator:effector ratio of […], or in the case of unstimulated controls, medium only. IL-7 was added to cultures at a final concentration of 10 U/ml on day 3. Cultures were restimulated by addition of peptide pulsed DCs on, day 7, and in some cases day 14, together with IL-7 and IL-2 (both at 10 U/ml). 200 μl of culture supernatants were collected at various intervals throughout the culture period and replaced with fresh medium. In the case of AML patient cultures, T2 cells were pulsed with peptide and used as stimulators in the same way as autologous DCs described above. Culture supernatants were analysed for IFNγ content by ELISA. After the 2-3 week culture period, stimulated effector cells were washed and analysed by pentamer staining, intracellular cytokine staining or ELISPOT assays.

[2] = tested on: HHD mice; assay: Mouse IFNγ-ELISpot after pDOM-epitope DNA vaccination
Procedure: HHD mice at 6 to 10 weeks of age were injected intramuscularly (i.m.) into both quadriceps with a total of 50 μg DNA in saline solution on day 0. Unless stated otherwise mice were boosted with the same DNA vaccine delivered with in vivo electroporation on day 28 as previously described^5.
Vaccine-specific IFNγ secretion by lymphocytes from individual mice was assessed ex vivo (BD ELISpot Set, BD PharMingen, San Diego, Calif.) on day 14 or 36, as described previously with some modifications^11. Briefly, viable lymphocytes were selected from splenocyte preparations by density centrifugation. […] Data are expressed as the frequency of spot-forming cells (SFCs) per million lymphocytes. For analysis of peptide-specific T-cell sensitivity, splenic lymphocytes from immunized mice were incubated with a range of PASD1 peptide concentrations and the frequency of specific cells assessed by ELISpot analysis as described. The number of SFC/million cells at the peptide concentration inducing the greatest response was assigned a value of 100%. For each peptide concentration tested the % maximal response was then calculated by the formula: (experimental SFCs per million cells/maximal SFCs per million cells)×100% for each individual animal.

[3] = tested on: patient CD8+ T cells; assay: pMHC tetramer array with unstimulated patient CD8+ T cells; assay type: cell-based, human
Procedure: FIG. 11: pMHC arrays. pMHC molecules were folded into tetramers using either streptavidin alone or AlexaFluor 532 (Molecular Probes) conjugated to streptavidin. Tetramers were spotted onto hydrogel slides using a contact deposition-type printer (Genetix), at a concentration of 0.5 mg/ml in 2% glycerol. Printed arrays were immobilised for 48 hours and stored at 4° C. until use. (FIG. 11 i) CD8+ T cells were negatively isolated from normal donor buffy coats obtained from National Blood Service UK or patient samples from the Department of Haematology, Southampton General Hospital following informed consent using EasySep isolation kits. […] Excess culture medium was removed before slides were analysed on the ProScanArray (PerkinElmer). […] Negatively isolated CD8+ T cells were labelled with CD8-FITC (FL1-H) and pMHC-SAPE (FL2-H) and analysed by flow cytometry using the FACScalibur™. […]
FIG. 12: Analysis of patient samples. […] Positives were only scored where at least 3 of 9 spots had T cells stuck to them and this occurred in both sets of spots in independent locations on the array. […]
In short, pMHC molecules were folded into tetramers using streptavidin alone or streptavidin conjugated to AlexaFluor 532 (Molecular Probes). […] Excess culture medium was removed before slides were analysed on the ProScanArray (PerkinElmer). […]

[4] = tested on: patient T cells; assay: IFNγ secretion by patient T cells following in vitro peptide stimulation; assay type: cell-based, human; settings: for Specific IFNγ secretion by ELISpot: colon cancer patient T cells stimulated with peptide
Procedure: FIG. 4. IFNγ secretion by patient T cells following in vitro stimulations. (A) IFNγ levels in peptide stimulated cultures from AML patients (same as shown in FIGS. 3 B and E) as measured by ELISpot assays. […] Graphs show IFNγ levels at day 10 (y-axis).
as §1
(§2) The T2 line was first examined for immune stimulatory molecules by FACS analysis. […] T2 cells were cultured in serum free conditions to reduce the non-human antigens present in the FCS. T2 cells were incubated with peptide for 4 hours, washed and irradiated and seeded in 96 well plates. Purified T cells (Miltenyi) from patients were added and IFNγ secretion or the expansion of CD8^+ epitope specific T cells measured using pentamers.

[5] = tested on: healthy donor CD8+ T cells; assay: Pentamer staining, healthy donor CD3+ cells stimulated with peptide pulsed DCs; assay type: cell-based, human; settings: two of four normal donors, after four stimulations
Procedure: (§3) Assessment of peptide specific T cells was carried out by staining 10^6 effector cells with 10 μl of PE labeled, HLA-A*0201 pentamers (custom made by Proimmune) for 10 minutes, at room temperature, in the dark. Cells were then washed and co-stained with CD8-FITC for 20 minutes at room temperature. The lymphocyte gate was selected according to FSSCH/SSCH and 50,000 events acquired. Staining with control pentamers was carried out for each sample.
as §1, with “200 μl of culture supernatants were collected at various intervals throughout the culture period and replaced with fresh medium. In the case of AML patient cultures, T2 cells were pulsed with peptide and used as stimulators in the same way as autologous DCs described above.” left out, “assays. […]” for “assays.”

[6] = tested on: AML patient CD8+ T cells; assay: Pentamer staining, AML patient CD3+ T cells stimulated with peptide loaded T2 cells; assay type: cell-based, human; settings: for P14 pentamer positive cells of the CD8+ cells: after P14 peptide stimulation; for Pentamer positive cells, frequency of the CD8+ cells: after two rounds of ex vivo stimulation
Procedure: as §3, §1, §2
Prior to each restimulation, cells were resuspended and aliquots taken for pentamer staining.

[7] = tested on: healthy donor CD3+ cells; assay: Intracellular IFNγ staining of peptide stimulated CD3+ cultures; assay type: cell-based, human; settings: after three stimulations, CD4 or CD8 co-staining
Procedure: For detection of IFNγ, Brefeldin A was added to T cells 12 hours prior to intracellular staining, to a final concentration of […]. Effector cells were washed with PBS and stained with CD8-PE or CD4-PE antibody for 30 minutes at room temperature. Stained cells were then washed twice with HBSS, and resuspended in the residual volume. 100 μl of fixation solution (Caltag Laboratories, UK) was added to each tube and samples incubated for 15 minutes at room temperature. Cells were then washed with cold HBSS, 1% FBS 0.1% sodium azide and resuspended in the residual volume. 100 μl of permeabilisation medium (Caltag Laboratories) and 5 μl of IFNγ-FITC was added to each tube, and incubated for 20 mins at room temperature. Finally, cells were washed and resuspended in 300-500 μl HBSS ready for FACS analysis. All antibodies and isotype controls were purchased from (Becton Dickinson, Oxford, UK) except HLA-A2 (from Serotec).
After 24 hours in maturation cytokines, DCs were incubated with peptide (50 μg/ml) for 4 hours. PBMCs or CD3^+ cells from healthy donors or patients with solid tumours were seeded into a 12-well plate, in X-VIVO 15 at a density of 2×10^6/ml. […] Culture supernatants were analysed for IFNγ content by ELISA. After the 2-3 week culture period, stimulated effector cells were washed and analysed by pentamer staining, intracellular cytokine staining or ELISPOT assays.

[8] = tested on: solid tumour patient CD8+ T cells; assay: Pentamer staining, solid tumour patient CD3+ T cells stimulated with peptide loaded autologous DCs; assay type: cell-based, human; settings: for Pentamer positive cells, frequency of CD8+ cells: absence of peptide stimulation; for Pentamer positive cells, frequency of the CD8+ population: after peptide stimulation (P15: three rounds)
Procedure: as §3, §1
There have been no reports of PASD1 expression in primary head and neck, prostate or colon cancer primary cells to date, but the head and neck cancer cell line Hn5^19, the lung cancer line H1299^19 and the colon cancer cell line SW480^24 are PASD1 positive. This raises the possibility that some solid cancer patients may be able to raise a response to the PASD1 peptides. Cells used in these experiments were isolated from leukophoresis samples taken several months after the cessation of treatment. Negatively purified CD3^+ T cells were stimulated with autologous monocyte derived DCs as described previously. Pentamer analysis was carried out after each stimulation.

[9] = tested on: peptide loaded targets; assay type: cell-based
[10] = prostate cancer patient, up to four stimulations

Row | Substance | IFNγ responses following stimulation with autologous DCs loaded with wild type peptide [1] | Secretion of IFNγ in cultures of CD4+ depleted effector cells [1] | IFNγ production from normal donor T cells [1] | Specific IFNγ secretion by ELISpot [4] | Pentamer positive T cells [5] | Pentamer positive cells, frequency of the CD8+ cells ([6]; AML patients) [%] | Pentamer positive cells, frequency of CD8+ cells ([8]; head and neck patient) | Pentamer positive cells, frequency of the CD8+ population ([8]; head and neck patient) | Pentamer positive cells [8, 10] | Killing of peptide loaded targets (CTL assay) [9] | also measured
1 | P4: wild type PASD1 nonamer, SEQ ID NO. 1 (LQNPRDVSV; listed as Homo sapiens) | generated some IFNγ responses |  |  |  |  |  |  |  |  |  | 
2 | P8: wild type PASD1 peptide, SEQ ID NO. 9, PASD1 691-699 (RLWQELSDS; listed as Homo sapiens) | generated some IFNγ responses |  |  |  |  |  |  |  |  |  | IFNγ secretion (ELISpot) against the peptide of the immunisation ([2]; HHD mice, prime only, 14 days later): does not
3 | P14: modified PASD1 peptide, SEQ ID NO 21, derivative of wild type peptide P8 (RLWQELSDI; Synthetic sequence amino acid sequence p14) |  | almost completely abolished | highest levels | detectable | small population | 0.02 | 0.02% | not expanded | No pentamer positive cells were detected |  | HLA-A2 positive ALL and CML patients with P14-specific T cells ([3]; 1 ALL and 1 CML HLA-A2 positive patient): neither; HLA-A2 positive AML patients with P14 specific T cells on the pMHC array ([3]; at presentation, no prior ex vivo stimulation): two of four; IFNγ secretion (ELISpot) against the peptide of the immunisation ([2]; mouse, in vivo): leads to an IFNγ response; IFNγ secretion by expanded P14-specific T cell populations ([4]; AML Patient I and II): IFNγ was secreted; Pentamer positive cells ([6]; AML Patient 3 (remission) and Patient 4 (non remission), after three stimulations): no pentamer positive cells were detected; P14 pentamer positive cells of the CD8+ cells ([6]; AML Patient I): 0.5%; P14 pentamer positive cells of the CD8+ cells ([6]; AML Patient II): 0.09%; Pentamer positive cells, frequency of the CD8+ T cells ([6]; AML patients, absence of peptide stimulation): not detectable above background levels; also recorded: undetectable; Phenotype of the IFNγ secreting cells [7]: IFNγ secreting cells were CD8+; P14 pentamer positive cells, frequency of the CD8+ T cell population ([8]; colon cancer patient, fourth stimulation): 13.6%; P14 pentamer positive cells, frequency of CD8+ cells ([8]; colon cancer patient, stimulation with DCs alone, corrected for control pentamer): 0.09%; P14 pentamer positive cells, frequency of CD8+ T cells ([8]; colon cancer patient, three rounds of P14 peptide stimulation): 0.11%
4 | P15: PASD1 peptide analogue with a single amino acid change, PASD1 587-595 (LINPRDVSV) |  | almost completely abolished | highest levels | not | small population | 0.02 | same low frequency | 0.06% | No pentamer positive cells were detected | did not occur | Pentamer positive cells ([8]; head and neck patient, fourth stimulation): did not expand this further
5 | P9: wild type PASD1 nonamer, SEQ ID NO. 11 (KLQERKKWQ; listed as Homo sapiens) | generated some IFNγ responses |  |  |  |  |  |  |  |  |  | 
6 | P16: PASD1 peptide analogue with a single amino acid change, PASD1 587-595 (LVNPRDVSV) |  | almost completely abolished | highest levels |  |  |  |  |  |  | did not occur | 
